By pIC50 is commonly meant the IC50 on a negative log10 scale, so that one unit is a factor of ten. A word on the GI50: it is the concentration at which growth is held to half of that of the control.

In one assay the target is T1, recombinant human DHODH (Homo sapiens, UniProt Q02127).
T1 construct: DHODH, 31-395aa, Human, His tag, E. coli, ATGP1615; His tag; purchased ATGen Co. Ltd. ATGP1615; host or cells: E. coli
In words: DHODH enzyme reaction inhibition test (DCIP-coupled assay). The assay is classed as biochemical. As to conditions: recombinant human DHODH 0.175 μg/mL, DCIP absorbance 600 nm, 50 minutes, pH 8.0; read-out: Enzyme reaction inhibitory effect (IC50). On the procedure:
The DHODH enzyme assay was carried out with reference to “Benjamin Bader, Wolfgang Knecht, Markus Fries, and Monika Loffler, Expression, Purification, and Characterization of Histidine-Tagged Rat and Human Flavoenzyme Dihydroorotate Dehydrogenase, Protein Expression and Purification, 1998, 13, 414-422.”
The DHODH activity was evaluated using an enzyme assay system that is coupled with an assay in which a blue coloring agent 2,6-dichlorophenolindophenol (DCIP, available from MP Biomedicals, LLC, MP150118) is quenched. Purified recombinant human DHODH (DHODH, 31-395aa, Human, His tag, E. coli, ATGP1615) was purchased from ATGen Co. Ltd. The enzyme assay was carried out in a 384-well plate using a buffer solution containing 100 mmol/L Hepes (available from Dojindo Laboratories, 342-01375), 400 mmol/L NaCl (available from FUJIFILM Wako Pure Chemical Corporation, 191-01665), 10% Glycerol (available from FUJIFILM Wako Pure Chemical Corporation, 075-00616), 0.05% Triton X-100 (available from Sigma-Aldrich Co., LLC, T8787-100ML), 0.2 mmol/L Ubiquinone-10 (available from FUJIFILM Wako Pure Chemical Corporation, 216-00761), 0.1 mmol/L DHO (L-dihydroorotic acid, available from Sigma-Aldrich Co., LLC, D7128), 0.5% DMSO (dimethylsulfoxide, available from FUJIFILM Wako Pure Chemical Corporation, 047-29353), 0.175 μg/mL DHODH, and 0.12 mmol/L DCIP and having a pH adjusted to 8.0 by adding 5 mol/L potassium hydroxide (available from FUJIFILM Wako Pure Chemical Corporation, 168-21815). A test compound with a predetermined concentration was added using Biomek NX (available from Beckman Coulter Inc.), and the enzyme reaction was started by adding the substrate. The enzyme activity was assessed by measuring the decrease in DCIP absorbance (600 nm) for 50 minutes using an EnVision plate-reading spectrophotometer (available from PerkinElmer, Inc.).
The enzyme reaction inhibition rate at each test compound concentration was determined, and the 50% enzyme reaction inhibition concentration [IC50 (nmol/L)] was calculated using XLfit. Enzyme reaction inhibition rate (%)=(amount of luminescence in test compound-added well)/(amount of luminescence in DMSO-added well)×100
The abbreviations in the table have the following meanings. • A: IC50 value<10 nmol/L • B: 10 nmol/L≤IC50 value<100 nmol/L • C: 100 nmol/L≤IC50 value

The test system of assay [1] is human myeloid leukemia cell line HL60. In words: Cell growth test, HL60 (CellTiter-Glo). It counts as cell-based. As to conditions: HL-60, 72 h, HL60 cells, 3 days, CellTiter-Glo luminescence, read-out: Cell growth inhibitory effect (GI50). The procedure:
The cell growth test was carried out using the human myeloid leukemia cell line HL60 (available from ATCC, CRL-240). As a culture medium of HL60 cells, RPMI 1640 (available from FUJIFILM Wako Pure Chemical Corporation, 189-02025) supplemented with 10% fetal bovine serum (available from Thermo Fisher Scientific, Inc., 10437-028), and 1% penicillin-streptomycin (10,000 U/mL, available from Thermo Fisher Scientific, Inc., 15140-122) was used. HL60 cells were seeded on a 384-well plate (available from Corning Inc., 4588) at a cell density of 1×10^3 cells/20 μL/well. After culturing overnight, 5 μL of the test compound having a predetermined concentration was added, and 3 days later, 25 μL of CellTiter-Glo (registered trademark) Luminescent Cell Viability Assay (available from Promega Corporation, G7573) was added, and then the amount of luminescence was measured using an EnVision plate reader (available from PerkinElmer, Inc.). Since the amount of luminescence is proportional to the intracellular concentration of adenosine triphosphate (ATP), the amount of luminescence was used as an indicator of the number of viable cells. The growth inhibitory concentration for each test compound concentration was calculated by the following expression.
The growth inhibition rate at each test compound concentration was determined, and the 50% growth inhibitory concentration [GI50 (nmol/L)] was calculated using XLfit. Growth inhibition rate (%)=(amount of luminescence in test compound-added well)/(amount of luminescence in DMSO-added well)×100
The abbreviations in the table have the following meanings. • A: GI50 value<100 nmol/L • B: 100 nmol/L≤GI50 value<1,000 nmol/L • C: 1,000 nmol/L≤GI50 value
A general note: Cellular ATP, detected with luciferase, serves as a proxy for viable cell number.

Molecules are shown by their SMILES. pIC50: −log10 of the molar value. Some results are limits rather than exact numbers.

T1 sequence (Q02127 31-395): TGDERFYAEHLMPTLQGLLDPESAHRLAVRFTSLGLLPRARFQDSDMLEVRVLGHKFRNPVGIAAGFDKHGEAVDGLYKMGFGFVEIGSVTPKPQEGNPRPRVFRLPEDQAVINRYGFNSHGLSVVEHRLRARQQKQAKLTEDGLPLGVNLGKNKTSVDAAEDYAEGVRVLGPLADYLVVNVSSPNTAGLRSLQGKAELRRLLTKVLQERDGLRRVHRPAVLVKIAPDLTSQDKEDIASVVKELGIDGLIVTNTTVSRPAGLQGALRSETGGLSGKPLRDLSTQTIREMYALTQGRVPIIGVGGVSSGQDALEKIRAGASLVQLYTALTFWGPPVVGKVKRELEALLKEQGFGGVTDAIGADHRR

Take `NS(=O)(=O)NC(=O)c1nc(C2CC2)cnc1Nc1cccc(C2CCOCC2)c1OC(F)F` [Example 3-50]: the pIC50 at recombinant human DHODH was above 8.00. The GI50 in assay [1] is below 100 nM.
In the same order, the values of `N#CNC(=O)c1nc(C2CC2)cnc1Nc1cc(F)cc(C2=CCOCC2)c1OCC(F)(F)F` [Example 3-38] are above 8.00 and below 100 nM.
Consider `CS(=O)(=O)NC(=O)c1cc(C2CC2)cnc1Nc1cccc(C2=CCOCC2)c1OCC(F)(F)F` [Example 3-24], for which the pIC50 on recombinant human DHODH is above 8.00. In addition, in assay [1], the GI50 was below 100 nM.
On to `CS(=O)(=O)NC(=O)c1nc(C2CC2)cnc1Nc1cccc(-c2ccc(C#N)cc2)c1OCC(F)(F)F` [Example 3-23], for which the pIC50 at recombinant human DHODH is above 8.00. Further, the GI50 in assay [1] is below 100 nM.
With `CC(=O)c1nc(C2CC2)cnc1Nc1cccc(C2=CCOCC2)c1OCC(F)(F)F` [Example 1-10, 1-(6-cyclopropyl-3-((3-(3,6-dihydro-2H-pyran-4-yl)-2-(2,2,2-trifluoroethoxy)phenyl)amino)pyrazin-2-yl)ethan-1-one], at recombinant human DHODH, the negative logarithm of the IC50 (pIC50) was 7.00 to 8.00. Moreover, the GI50 in assay [1] was in the range of 100 to 1000 nM.
As for `Cc1cc(C#N)ccc1-c1cccc(Nc2ncc(C3CC3)nc2C(=O)NS(C)(=O)=O)c1OCC(F)(F)F` [Example 3-16], the negative logarithm of the IC50 (pIC50) on recombinant human DHODH is above 8.00. Moreover, the GI50 in assay [1] is below 100 nM.
In the same order, the values of `O=C(O)c1cc(C2CC2)ccc1Nc1cncc(C2=CCOCC2)c1OCC(F)(F)F` [Example 2-1] are above 8.00 and 100 to 1000 nM.
As for `NS(=O)(=O)NC(=O)c1nc(C2CC2)cnc1Nc1cccc(C2=CCOCC2)c1OCC(F)(F)F` [Example 3-10], the pIC50 at recombinant human DHODH is above 8.00. Further, in assay [1], the concentration for 50% growth inhibition (GI50) was below 100 nM.
`N#Cc1cccc(-c2cccc(Nc3ncc(C4CC4)nc3C(=O)O)c2OCC(F)(F)F)c1` [Example 2-9]: the pIC50 at recombinant human DHODH is above 8.00. The GI50 in assay [1] is below 100 nM.
As for `CNS(=O)(=O)NC(=O)c1nc(C2CC2)cnc1Nc1cccc(C2=CCOCC2)c1OCC(F)(F)F` [Example 3-20], the pIC50 on recombinant human DHODH is 7.00 to 8.00. The 50% growth inhibitory concentration (GI50) in assay [1] was 100 to 1000 nM.
Take `CS(=O)(=O)NC(=O)c1nc(C2CC2)cnc1Nc1cccc(-c2ccc(C#N)cc2)c1OC(F)F` [Example 3-51]: the pIC50 at recombinant human DHODH is above 8.00. The GI50 in assay [1] lay in the range of 100 to 1000 nM.
For `C[C@H](Oc1c(Nc2ncc(C3CC3)nc2C(=O)NS(C)(=O)=O)cccc1C1CCOCC1)C(F)(F)F` [Example 3-13], the pIC50 at recombinant human DHODH was 7.00 to 8.00. Also, the GI50 in assay [1] fell in the range of 100 to 1000 nM.
Take `N#Cc1ccc(-c2cc(F)cc(Nc3ncc(C4CC4)nc3C(=O)NS(N)(=O)=O)c2OC(F)F)cc1` [Example 3-54]: on recombinant human DHODH, the pIC50 is 7.00 to 8.00. The GI50 in assay [1] lay in the range of 100 to 1000 nM.
In the case of `O=C(NS(=O)(=O)C(F)(F)F)c1nc(C2CC2)cnc1Nc1cccc(C2=CCOCC2)c1OCC(F)(F)F` [Example 3-18], the pIC50 at recombinant human DHODH was 7.00 to 8.00. In addition, the GI50 in assay [1] was at least 1000 nM.
Turning to `NS(=O)(=O)NC(=O)c1nc(C2CC2)cnc1Nc1cc(F)cc(C2CCOCC2)c1OC(F)F` [Example 3-53], the pIC50 at recombinant human DHODH was above 8.00. Further, the concentration for 50% growth inhibition (GI50) in assay [1] was below 100 nM.
In the case of `CS(=O)(=O)NC(=O)c1nc(C2CC2)cnc1Nc1cccc(C2CCOCC2)c1OC(F)F` [Example 3-49], on recombinant human DHODH, the pIC50 is above 8.00. In addition, the GI50 in assay [1] is below 100 nM.
For `O=c1[nH]c(-c2nc(C3CC3)cnc2Nc2cccc(C3=CCOCC3)c2OCC(F)(F)F)no1` [Example 1-7, 3-(6-cyclopropyl-3-((3-(3,6-dihydro-2H-pyran-4-yl)-2-(2,2,2-trifluoroethoxy)phenyl)amino)pyrazin-2-yl)-1,2,4-oxadiazol-5(4H)-one], the pIC50 on recombinant human DHODH was above 8.00. Further, in assay [1], the GI50 lay within 100 to 1000 nM.
Take `O=Cc1nc(C2CC2)cnc1Nc1cccc(C2=CCOCC2)c1OCC(F)(F)F` [Example 1-14, 6-cyclopropyl-3-((3-(3,6-dihydro-2H-pyran-4-yl)-2-(2,2,2-trifluoroethoxy)phenyl)amino)pyrazine-2-carbaldehyde]: the pIC50 at recombinant human DHODH was at most 7.00. Further, the 50% growth inhibitory concentration (GI50) in assay [1] is at least 1000 nM.
Consider `CCOc1ccc(Nc2ncc(C3CC3)nc2C(=O)NS(C)(=O)=O)c(OCC)c1C1=CCOCC1` [Example 3-58], for which the pIC50 at recombinant human DHODH was above 8.00. Besides, the GI50 in assay [1] was below 100 nM.
On to `N#CNC(=O)c1nc(C2CC2)cnc1Nc1cccc(C2=CCOCC2)c1OCC(F)(F)F` [Example 3-1], for which the pIC50 on recombinant human DHODH was above 8.00. Moreover, the GI50 in assay [1] is below 100 nM.
In the same order, the values of `CS(=O)(=O)NC(=O)c1nc(C2CC2)cnc1Nc1cc(F)cc(-c2ccc(C#N)cc2)c1OC(F)F` [Example 3-55] are 7.00 to 8.00 and 100 to 1000 nM.
Turning to `OCc1nc(C2CC2)cnc1Nc1cccc(C2=CCOCC2)c1OCC(F)(F)F` [Example 1-3], the pIC50 on recombinant human DHODH was 7.00 to 8.00. For the same molecule, the GI50 in assay [1] is 100 to 1000 nM.
For `Cc1ccc(-c2cccc(Nc3ncc(C4CC4)nc3C(=O)O)c2OCC(F)(F)F)c(C)n1` [Example 1-4, 6-cyclopropyl-3-((3-(2,6-dimethylpyridin-3-yl)-2-(2,2,2-trifluoroethoxy)phenyl)amino)pyrazine-2-carboxylic acid], in that order: 7.00 to 8.00 and 100 to 1000 nM.
With `CS(=O)(=O)NCc1nc(C2CC2)cnc1Nc1cccc(C2=CCOCC2)c1OCC(F)(F)F` [Example 1-15, N-((6-cyclopropyl-3-((3-(3,6-dihydro-2H-pyran-4-yl)-2-(2,2,2-trifluoroethoxy)phenyl)amino)pyrazin-2-yl)methyl)methanesulfonamide], on recombinant human DHODH, the negative logarithm of the IC50 (pIC50) was at most 7.00. Moreover, the GI50 in assay [1] is at least 1000 nM.
Consider `C[C@H](Oc1c(Nc2ncc(C3CC3)nc2C(=O)NS(N)(=O)=O)cccc1C1=CCOCC1)C(F)(F)F` [Example 3-27], for which the negative logarithm of the IC50 (pIC50) on recombinant human DHODH was above 8.00. Further, the GI50 in assay [1] is below 100 nM.
For `N#Cc1ccc(-c2cccc(Nc3ncc(C4CC4)nc3C(=O)NS(N)(=O)=O)c2OC(F)F)cc1` [Example 3-52], in that order: 7.00 to 8.00 and 100 to 1000 nM.
With `NCc1nc(C2CC2)cnc1Nc1cccc(C2=CCOCC2)c1OCC(F)(F)F` [Example 1-17, 3-(aminomethyl)-5-cyclopropyl-N-(3-(3,6-dihydro-2H-pyran-4-yl)-2-(2,2,2-trifluoroethoxy)phenyl)pyrazine-2-amine], the pIC50 at recombinant human DHODH was at most 7.00. Further, the GI50 in assay [1] is at least 1000 nM.
For `N#CNC(=O)c1nc(C2CC2)cnc1Nc1cccc(C2CCOCC2)c1OCC(F)(F)F` [Example 3-29], in that order: above 8.00 and below 100 nM.
As for `N#CNC(=O)c1nc(C2CC2)cnc1Nc1cccc(-c2ccc(C#N)cc2)c1OCC(F)(F)F` [Example 3-33], the negative logarithm of the IC50 (pIC50) on recombinant human DHODH was above 8.00. In addition, the GI50 in assay [1] was below 100 nM.
On to `N#Cc1ccc(-c2cccc(Nc3ncc(C4CC4)cc3C(=O)O)c2OCC(F)(F)F)cc1` [Example 2-7], for which the pIC50 at recombinant human DHODH is above 8.00. The concentration for 50% growth inhibition (GI50) in assay [1] is below 100 nM.
Take `N#CNC(=O)c1cc(C2CC2)ccc1Nc1cncc(C2=CCOCC2)c1OCC(F)(F)F` [Example 3-2]: the pIC50 at recombinant human DHODH was above 8.00. The GI50 in assay [1] was at least 1000 nM.
For `C[C@H](Oc1c(Nc2ccc(C3CC3)cc2C(=O)O)ccnc1C1=CCOCC1)C(F)(F)F` [Example 1-18], the negative-log IC50 (pIC50) at recombinant human DHODH is above 8.00. Moreover, in assay [1], the GI50 is below 100 nM.

(Values after US12637435B2, “Nitrogen-containing heterocyclic compound or salt thereof, use thereof, and intermediate thereof” (FUJIFILM Corporation, priority 2020, dated 2026).)
